What was measured:
[1] = tested on: C57 and BTBR mice; experiment: Social preference procedure: social novelty preference test; format: in vivo, mouse
Description: (§1) All drugs were dissolved in physiological 0.9% saline and administered at a constant volume of 1 ml/100 g body weight. Because all drugs utilized in these studies were synthesized as hydrochloride (HCl) salts, they were weighed as salts prior to the preparation of all solutions. All drugs at all concentrations are readily dissolved in an aqueous solution at normal pH. Injections of all drugs were administered intraperitoneally (IP) to mimic pharmacokinetic parameters typical of oral administration, without the behaviour-impairing effects of gavage stress.
(§2) This assay was conducted in adult male C57 and BTBR mice (n=6 per group) in a dedicated conditioning room where ambient light, sound, and human contact were tightly controlled.
Social preference chambers consisted of two polycarbonate boxes (13.5 cm wide×22.5 cm tall×31.0 cm deep), floored with rough-textured black ABS plastic, and connected to one another by a 1.25″ PVC T-junction. An infrared photobeam emitter/detector array was mounted at each intersection of the T-junction and each preference compartment, and as a mouse traversed the apparatus, it would break the photobeam upon entry to or exit from each preference compartment. Beam breaks started or stopped a counter on an interfaced computer, allowing automated collection of time spent in each compartment. […]

[2] = tested on: C57 and BTBR mice; experiment: Social preference procedure: novelty preference test; format: in vivo, mouse; conditions: 1 mg/kg IP
Description: as §1, §2
Social preference chambers consisted of two polycarbonate boxes (13.5 cm wide×22.5 cm tall×31.0 cm deep), floored with rough-textured black ABS plastic, and connected to one another by a 1.25″ PVC T-junction. An infrared photobeam emitter/detector array was mounted at each intersection of the T-junction and each preference compartment, and as a mouse traversed the apparatus, it would break the photobeam upon entry to or exit from each preference compartment. Beam breaks started or stopped a counter on an interfaced computer, allowing automated collection of time spent in each compartment. At the end of each test, data were reported as time (in seconds) spent in each compartment, the number of entries into each compartment, and the average time spent in each compartment following an entry. Social preference tests were conducted in an iterative manner, with each test subject completing four distinct phases as described below. Between testing sessions, chambers were sanitized by wiping the insides with a disinfectant product provided by the UAMS Department of Laboratory Animal Medicine. At the end of the week (upon completion of all phases of the procedure), each apparatus was disassembled and all parts were sanitized. No food or water were available during social preference sessions, but were available in the home cage immediately afterwards. […]

[3] = tested on: C57 and BTBR mice; experiment: Social preference procedure: sociability test; format: in vivo, mouse; conditions: 1 mg/kg IP
Description: as §1, §2
(§3) Social preference chambers consisted of two polycarbonate boxes (13.5 cm wide×22.5 cm tall×31.0 cm deep), floored with rough-textured black ABS plastic, and connected to one another by a 1.25″ PVC T-junction. An infrared photobeam emitter/detector array was mounted at each intersection of the T-junction and each preference compartment, and as a mouse traversed the apparatus, it would break the photobeam upon entry to or exit from each preference compartment. Beam breaks started or stopped a counter on an interfaced computer, allowing automated collection of time spent in each compartment. At the end of each test, data were reported as time (in seconds) spent in each compartment, the number of entries into each compartment, and the average time spent in each compartment following an entry. Social preference tests were conducted in an iterative manner, with each test subject completing four distinct phases as described below. Between testing sessions, chambers were sanitized by wiping the insides with a disinfectant product provided by the UAMS Department of Laboratory Animal Medicine. At the end of the week (upon completion of all phases of the procedure), each apparatus was disassembled and all parts were sanitized. No food or water were available during social preference sessions, but were available in the home cage immediately afterwards.
A single sociability session occurred the day after the novelty preference test, where one compartment contained a wire mesh cup with a dummy mouse inside while the other compartment contained a male NIH Swiss stranger mouse inside the previously empty cup (see FIG. 4). […] The position of the dummy mouse (left or right compartment) remained the same for each subject as during the novelty test the day before, thereby counterbalancing the position of the stranger mouse across subjects. NIH Swiss stranger mice were similar in mass and appearance to the dummy PVC mice, and were housed separately from the experimental subjects (C57 and BTBR mice) in the colony facility. The first time the experimental subjects ever encountered the stranger mice was when they entered the compartment where they were contained. During this session, mice were weighed, administered the same injection as the day before, and returned to their home cage for a 30 min pretreatment period. Mice were then introduced into the T-junction and allowed to explore both preference compartments for 15 minutes. Sociability tests always occurred on Wednesdays or Thursdays to prevent any weekend testing.

[4] = tested on: C57 and BTBR mice; experiment: Compartment entries during social novelty test (proxy for locomotor stimulant effects); format: in vivo, mouse; conditions: 1 mg/kg, C57 mice, relative to saline
Source text: as §3
Quantifying total entries into the preference compartments provides a proxy measurement for locomotor stimulant effects of the various doses of the various test drugs. This establishes a limit to the drug doses that can be tested in the social preference procedure, as induction of locomotor stimulant effects confounds preference assessments (because mice stop attending to the social stimuli in each compartment and instead spend their time engaged in locomotor behavior.) Motor activity varies across the distinct phases of social preference testing, in part because the habituation session is twice as long (30 minutes) as the novelty, sociability, and social novelty tests (15 minutes each), but also because mice emit high levels of exploratory behavior in novel environments. Thus, as familiarity with the test apparatus increases over successive exposures to the chambers, the number of entries decreases.
(Note that entries were collected for every test, but drug effects on entries during earlier phases may be less reliable due to the confounding influence of changing familiarity with the apparatus across phases.)

[5] = tested on: C57 and BTBR mice; experiment: Conditioned place preference; format: in vivo, mouse
Description: The same 2-compartment chambers as described above in the social preference studies for conditioned place preference. For these studies, compartments are differentiated by floor texture (rough black plastic vs steel punch plate) and wall pattern (vertical vs. horizontal stripes.) An initial preference/habituation test was first run where mice were able to freely traverse the apparatus for 30 minutes. The following day, mice were assigned to receive saline in one compartment and drug in the other. Saline pairings occurred in the morning, drug pairings occurred in the afternoon, and were separated by at least 4 hours, during which time mice returned to their home cages. Three such pairings were performed, where mice were injected, returned to the home cage for a 15 min pretreatment period, then confined to the injection-appropriate compartment for 30 minutes. Half the subjects (within strain) received drug pairings on the plastic floor+vertical stripes side, and the other half received drug pairings on the punch plate floor+horizontal stripes side. […] The post-conditioning preference test was identical to the initial preference/habituation session, where mice were freely able to traverse the apparatus for 30 minutes. Time spent in each compartment was recorded, and expressed as a preference score for the drug paired side (calculated as time spent in that compartment during the post-test—time spent there during the pre-test.) All preference and conditioning sessions were conducted under the same low light conditions as in the social preference tests.

[6] = molecular target: DAT (Homo sapiens, UniProt Q01959); experiment: QSAR model predicted IC50, DAT; conditions: ratio = 1/DAT IC50:1/SERT IC50, from predicted IC50
Chain of DAT (Q01959 whole entry, species assumed): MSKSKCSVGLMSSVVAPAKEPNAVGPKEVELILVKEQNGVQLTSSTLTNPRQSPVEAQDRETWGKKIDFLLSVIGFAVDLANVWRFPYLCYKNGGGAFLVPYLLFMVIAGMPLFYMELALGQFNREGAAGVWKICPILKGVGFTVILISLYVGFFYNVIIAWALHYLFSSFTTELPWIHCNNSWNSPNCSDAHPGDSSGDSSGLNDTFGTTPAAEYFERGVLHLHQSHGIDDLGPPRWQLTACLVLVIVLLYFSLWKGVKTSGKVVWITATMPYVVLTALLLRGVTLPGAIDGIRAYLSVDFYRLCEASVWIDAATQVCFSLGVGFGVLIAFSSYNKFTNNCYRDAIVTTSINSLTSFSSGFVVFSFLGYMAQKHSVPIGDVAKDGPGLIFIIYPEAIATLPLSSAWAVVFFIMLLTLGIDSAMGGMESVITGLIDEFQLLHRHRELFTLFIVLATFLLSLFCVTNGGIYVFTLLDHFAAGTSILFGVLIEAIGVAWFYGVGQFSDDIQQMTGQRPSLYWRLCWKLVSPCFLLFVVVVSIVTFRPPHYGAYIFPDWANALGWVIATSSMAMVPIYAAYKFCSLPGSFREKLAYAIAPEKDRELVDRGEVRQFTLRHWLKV
Description: In silico studies (QSAR and docking) are useful tools to understand drug mechanisms, and they are relatively cheaper and faster than experiments. A QSAR model was created for each monoamine transporter. Additionally, the docking properties of phenethylamines were investigated.
QSAR: DAT, SERT and NET IC50 values were collected from the literature for 73 phenethylamines. Three different software's were used for descriptor calculations, and almost 2000 descriptors were calculated. Highly correlated descriptors were eliminated before multi-linear regression (MLR) analysis. All descriptors were merged with experimental inhibition values in QSARiNS software. The multi-Criteria Decision-Making tool of QSARiNS was used to pick the best model.
The predicted IC^50 (mM) values of the test molecules generated based on the QSAR developed as described above are presented in Table 4.

[7] = 3 mg/kg, x3 pairings, C57 and BTBR mice

c1cc2c(cc1CC1CCCN1)OCO2 (racemic) [(R/S)-I, (R/S)-2-[(2H-1,3-benzodioxol-5-yl)methyl]pyrrolidine]
pro-social response (time with stranger mouse, social novelty preference) ([1]; 1 mg/kg): strongest pro-social response
pro-social response (time with stranger mouse, social novelty preference) ([1]; 1.8 mg/kg): the response drops

CNC(C)Cc1ccc2c(c1)OCO2 (racemic) [racemic MDMA, 1-(1,3-benzodioxol-5-yl)-N-methylpropan-2-amine, reference compound]
effect on novelty preference (time spent with dummy mouse) [2]: no systematic effects
sociability (time spent with stranger mouse) ([3]; BTBR mice): minor increase in the sociability response
sociability (time spent with stranger mouse) ([3]; C57 mice): no impact
total entries during social novelty test [4]: no effect
place conditioning (place preference) [5, 7]: significant place preferences

CN[C@H](C)Cc1ccc2c(c1)OCO2 [R-MDMA, reference compound]
DAT/SERT (calculated) [6]: 0.010
place conditioning (place preference) ([5]; 10 mg/kg, either strain): no significant effects

CN[C@@H](C)Cc1ccc2c(c1)OCO2 [S-MDMA, reference compound]
DAT/SERT (calculated) [6]: 0.383
place conditioning (place preference) [5, 7]: significant place preferences

CN[C@@H](C)Cc1ccccc1 [S-methamphetamine, reference compound]
place conditioning (place preference) ([5]; 1.0 and 3.0 mg/kg, x3 pairings, C57 and BTBR mice): significant place preferences in C57 mice only
